What was measured:
Type in all cases: in vivo
[1] = tested on: Arabidopsis thaliana Landsberg erecta strain DW150-307; assay: Growth and glycoprotein glycosylation in GUS-containing plants; conditions: for carbohydrate patterns of glycoproteins compared with control seeds: ANTS and 1,5-EDANS labeling, HPLC and PAGE; for decrease in number of inflorescence stems (average) / plant growth: M0809 22 mg/L or M0872 25 mg/L in MS agar medium
Procedure: Arabidopsis thaliana Landsberg erecta strain DW150-307 plants were propagated from seeds. Seeds were surface-sterilized with 70% ethanol (30 seconds) and 2% sodium hypochlorite (15 minutes), and then placed on a plant hormone-free MS agar medium. After incubation at 4° C. for 2 days, the seeds were cultured at 25° C. for one week while the daylight hours were kept to be 16 hours. The cotyledons were taken from the obtained sterile seedlings and then placed on an MS agar medium containing either deoxynojirimycin b-D-glucuronide methyl ester (M0809) (22 mg/L) or deoxymannonojirimycin b-D-glucuronidetriacetate, methyl ester (M0872) (25 mg/L) (regeneration medium in 9 cm Petri dish), and cultured under the same conditions as those described above for 6 days. Plants were transplanted into fresh media containing the same concentrations of M0809 or M0872 as above, and growth continued for an additional 19 days, until full seed pods were obtained. Plants grew normally on media containing the M0809 or M0872, except that the number of inflorescence stems was decreased (an average of 50%) in the treated plant specimens. Seed pods, floral and stem tissues from these plants were harvested, and seeds dried briefly in vacuo (10 mm Hg, 1 hour). Seeds were crushed, and carbohydrate content of all tissues analyzed using the ANTS and 1,5-EDANS labeling systems, followed by HPLC analysis and PAGE electrophoretic analysis.

[2] = tested on: Arabidopsis thaliana Landsberg erecta wild type (WT); assay: Plant growth on MS media containing conjugates, wild type
Text: (§1) Arabidopsis thaliana Landsberg erecta is a wild type (WT) strain derived from the Landsberg ecotype. Arabidopsis thaliana Landsberg erecta strain DW150-307 (DW) is a transgenic strain produced using the method of Blazquez et al., 1997, Development 124:3835-3844. The transgenic DW strain is homozygous for the LFY::GUS insertion and thus contains GUS under control of the full length LFY promoter that expresses E. coli β-glucuronidase. Expression of GUS in this strain is developmentally regulated, showing the highest levels 9 days after germination (at the onset of meristem floral initiation under a long-day, 16 h. light regime), but having basal levels in vegetative apices throughout secondary growth. Accordingly, GUS expression leads to production of the E. coli β-glucuronidase enzyme in floral and to a lesser extent in shoot meristem tissues of the plant. Isogenic homozygous plant strains were kindly provided by Dr. Detlef Weigel, Department of Biology, The Salk Institute, San Diego, Calif.
(§2) Wild type (WT) and recombinant (DW) plants were grown in MS media containing 0-100 ug/mL of conjugates M0630, M0632, or M0792 (prepared as set forth herein). All plants were grown at 23° C. in long-day (16 hours light/8 hours dark) cycles, under a mixture of Cool White and Gro-Lux/WS fluorescent lights (Osram, Sylvania) and sterile conditions.

[3] = tested on: Arabidopsis thaliana Landsberg erecta strain DW150-307 (DW); assay: Plant growth on MS media containing conjugates, LFY::GUS recombinant; conditions: for floral tissue response of DW plants upon inflorescence / vegetative growth of DW plants: MS media containing conjugate
Text: as §1, §2

[4] = tested on: wild-type potato plants; assay: Negative selection of potato, wild type; conditions: M0627 3.5 mg/L, M0630 10 mg/L, M0632 10 mg·L, M0792 5 mg/L; MS media, soil or daily spray
[5] = tested on: wild-type tomato plants; assay: Negative selection of tomato, wild type; conditions: M0627 3.5 mg/L, M0630 10 mg/L, M0632 10 mg·L, M0792 5 mg/L; MS media, soil or daily spray
[6] = tested on: GUS-positive tomato (minitomato) plants; assay: Negative selection of tomato transformants; conditions: M0627 3.5 mg/L, M0630 10 mg/L, M0632 10 mg·L, M0792 5 mg/L; MS media, soil or daily spray
Procedure: Tomato (cultivar, minitomato) seeds are surface-sterilized with 70% ethanol (30 seconds) and 2% sodium hypochlorite (15 minutes), and then placed on a plant hormone-free MS agar medium. The seeds are cultured at […] 23° C. in long-day (16 hours light/8 hours dark) cycles, under a mixture of Cool White and Gro-Lux/WS fluorescent lights (Osram, Sylvania) and sterile conditions. The cotyledons are taken from the obtained sterile seedlings and then placed on an MS agar medium containing 2 mg/l of Zeatin and 0.1 mg/l of IAA (regeneration medium) in 9 cm Petri dishes, and cultured under the same conditions as those described above for 2 days.
Agrobacterium tumefaciens strain LBA4404 suspension containing the binary plasmid pBI121 (Clontech, Palo Alto, Calif.) is used for transformation. The plasmid pBI121 carries the neomycin phosphotransferase (NPTII) gene and β-glucuronidase (GUS) gene. In this vector, the neomycin phosphotransferase (NPTII) gene is under the control of the nopaline synthase (nos) promoter and the terminator from nopaline synthase (nos) which provides polyadenylation signal. The neomycin phosphotransferase (NPTII) gene confers kanamycin resistance. The β-glucuronidase (GUS) activity is under the control of the cauliflower mosaic virus ^35S promoter, providing constitutive expression in all tissues, and the terminator from nopaline synthase (nos) provides polyadenylation. Agrobacterium tumefaciens is grown overnight at 28° C. in liquid YEP medium (Sambrook J., Fritsch E. F., Maniatis T., Molecular Cloning: a laboratory manual. 2nd ed., Cold Spring Harbor, N.Y., 1989) supplemented with 25 mg/l rifampicin, 50 mg/l streptomycin, and 50 mg/l kanamycin. An overnight culture is diluted with liquid TE medium to 4×10^8 cells/ml for transformation.
The cotyledons cultured for two days are collected in a sterilized Petri dish, and the Agrobacterium suspension is added to them to cause infection. Superfluous Agrobacterium suspension is removed from the cotyledons by using a sterilized filter paper. After further removing excess Agrobacterium suspension, a sterilized filter paper is placed on the medium in the Petri dish in order to prevent rapid propagation of Agrobacterium. The infected cotyledons are placed on this media and co-cultured for 24 hours.
The transfected cotyledons are then transferred into an agar screening medium (MS medium, 2% sucrose, 1 mg/l zeatin, 1 mg/l IAA, 1% agar, 50 mg/l kanamycin, 500 mg/l claforan, 1% agar) to select the GUS transformant plants. The regenerated shoots are then transferred into a new selecting medium to conduct further selection.

[7] = tested on: GUS-positive potato (May queen) plants; assay: Negative selection of potato transformants; conditions: M0627 3.5 mg/L, M0630 10 mg/L, M0632 10 mg·L, M0792 5 mg/L; MS media, soil or daily spray
Procedure: Potato (May queen) pieces with sprouts are planted in a mixture of vermiculite and compost (1:1). After two weeks, the apical meristem culture of the grown sprouts is removed to obtain the sterile seedling plants. Sterile plants are then placed in MS liquid medium containing 2% sucrose, pH 5.7 (80 ml) and incubated with rotation at 25° C. in a well-lighted place to induce rooting. After two weeks, the rooted plants are transferred into MS liquid medium for microtuber induction (MS medium, 8% sucrose, pH 5.7, 40 ml medium in 100 ml Erlenmeyer flask) in the dark for 28 days. The microtubers are then cut into pieces (2 mm) and transferred into agar medium for regeneration (MS medium, 2% sucrose, 1 mg/l zeatin, 0.1 mg/l IAA, 1% agar). The pieces of the microtuber pre-cultured for two days are then immersed in an Agrobacterium tumefaciens strain LBA4404 suspension containing the binary plasmid pBI121 (Clontech, Palo Alto, Calif.) for transformation. The plasmid pBI121 carries the neomycin phosphotransferase (NPTII) gene and β-glucuronidase (GUS) gene. In this vector, the neomycin phosphotransferase (NPTII) gene is under the control of the nopaline synthase (nos) promoter and the terminator from nopaline synthase (nos) which provides polyadenylation signal. The neomycin phosphotransferase (NPTII) gene confers kanamycin resistance. The β-glucuronidase (GUS) activity is under the control of the cauliflower mosaic virus ^35S promoter, providing constitutive expression in all tissues, and the terminator from nopaline synthase (nos) provides polyadenylation. Agrobacterium tumefaciens was grown overnight at 28° C. in liquid YEP medium (Sambrook J., Fritsch E. F., Maniatis T., Molecular Cloning: a laboratory manual. 2nd ed., Cold Spring Harbor, N.Y., 1989) supplemented with 25 mg/l rifampicin, 50 mg/l streptomycin, and 50 mg/l kanamycin. An overnight culture is diluted with liquid TE medium to 4×10^8 cells/ml for transformation. A filter paper is placed on the agar medium, over the microtuber pieces and the co-culture is continued for 48 hours. The transfected microtubers are then washed 4-5 times in sterile distilled water to decrease the concentration of Agrobacterium tumefaciens and with a cefotaxime (250 mg/l) solution for 20 min, and then again with sterile distilled water (4-5 times). The microtubers are then transferred into an agar screening medium (MS medium, 2% sucrose, 1 mg/l zeatin, 1 mg/l IAA, 1% agar, 50 mg/l kanamycin, 500 mg/l Claforan, 1% agar). After about two months growth, the divided shoots are transferred into a rooting induction medium and then into a microtuber induction medium. The obtained GUS-positive plants are used for the analysis.

[8] = 100 ug/mL in MS media (highest concentration)
[9] = lower concentrations in MS media

SMILES | carbohydrate patterns of glycoproteins compared with control seeds [1] | decrease in number of inflorescence stems (average) [1] | plant growth [1] | growth of wild type plants [2, 8] | growth of wild type plants [2, 9] | floral tissue response of DW plants upon inflorescence [3] | vegetative growth of DW plants [3] | effect on wild-type plants [4] | effect on wild-type plants [5] | effect on GUS-positive plants [6] | effect on GUS-positive plants [7] | growth phenotype of DW150-307 plants ([3]; 1 ug/mL for 32 days) | germination and survival of DW plants ([3]; media application, above the lowest concentration)
COC(=O)C1OC(OCC2NCC(O)C(O)C2O)C(OC(C)=O)C(OC(C)=O)C1OC(C)=O [Example M0872, deoxymannonojirimycin b-D-glucuronidetriacetate, methyl ester] | modified in structure | 50% | grew normally |  |  |  |  |  |  |  |  |  | 
COC(=O)C1OC(OC(CC2CC(=O)NC(=O)C2)C2CC(C)CC(C)C2=O)C(OC(C)=O)C(OC(C)=O)C1OC(C)=O [Example M0792, Cycloheximide-β-D-glucuronic acid methyl ester triacetate] |  |  |  | slightly slower | comparable growth to the blank controls | floral tissues became chlorotic (brown) and became dehydrated and ablated | normal vegetative growth until inflorescence initiation | does not affect growth or morphology | does not affect growth or morphology | selective ablation | selective ablation |  | 
COC(=O)C1OC(Oc2ccc(=O)[nH]n2)C(OC(C)=O)C(OC(C)=O)C1OC(C)=O [Example M0627, Maleic Hydrazide Beta-D-Glucuronide Triacetate, Methyl Ester] |  |  |  | slightly slower | comparable growth to the blank controls |  |  | does not affect growth or morphology | does not affect growth or morphology | selective ablation | selective ablation |  | 
COC(=O)C1OC(Oc2c(Br)cc(C#N)cc2Br)C(O)C(O)C1O [Example M0632, Bromoxynil-β-D-glucuronic acid methyl ester] |  |  |  | slightly slower | comparable growth to the blank controls |  |  | does not affect growth or morphology | does not affect growth or morphology | selective ablation | selective ablation | callus formation | either did not germinate or were ablated shortly after germination
COC(=O)C1OC(OCC2NCC(O)C(O)C2O)C(O)C(O)C1O [Example M0809, deoxynojirimycin b-D-glucuronide methyl ester] | modified in structure | 50% | grew normally |  |  |  |  |  |  |  |  |  | 
COC(=O)C1OC(Oc2c(Br)cc(C#N)cc2Br)C(OC(C)=O)C(OC(C)=O)C1OC(C)=O [Example M0630, bromoxynil-β-D-glucuronic acid methyl ester triacetate] |  |  |  |  |  | floral tissues became chlorotic (brown) and became dehydrated and ablated | normal vegetative growth until inflorescence initiation | does not affect growth or morphology | does not affect growth or morphology | selective ablation | selective ablation |  | 

Source: US8716558B2, “Method of altering glycosylation of proteins in response to nojirimycin glucuronide in a plant cell expressing glucuronidase” (Marker Gene Technologies, Inc., priority 1999, dated 2014)
